According to patent EP0245669B1, “Pharmaceutical preparation for preventing damage to living cells by free radicals, or for increasing the efficacy of organic sulphur compounds, and process for increasing the life span of isolated organs” (Medopharm Arzneimittelwerk Dr. Zillich GmbH & Co., priority 1986, dated 1987):

How the values were obtained:
weiblichen C3H Mäusen = assay: Radiation protection: survival of mice after gamma irradiation (cobalt-60) following i.p. pretreatment; format: in vivo, Mäuse; conditions: for Ueberlebensrate nach Bestrahlung mit 9 Gy % / Ueberlebensrate nach Bestrahlung mit 9 Gy Anzahl: 10 min before 9 Gy; for Ueberlebensrate nach Bestrahlung mit 9 Gy Anzahl / Ueberlebensrate nach Bestrahlung mit 10 Gy Anzahl / Ueberlebensrate nach Bestrahlung mit 11 Gy Anzahl: surviving/irradiated mice; for Ueberlebensrate nach Bestrahlung mit 11 Gy % / Ueberlebensrate nach Bestrahlung mit 11 Gy Anzahl: 30 min before 11 Gy
From the text: In den nachfolgenden Beispielen wurde die synergistische Wirkung der durch die erfindungsgemässe Verwendung hergestellten pharmazeutischen Präparate mit organische Schwefelverbindungen enthaltenden Präparaten anhand des Strahlenschutzes getestet und es wurde auch die Strahlenschutzwirkung der Zinkionen enthaltenden Präparate mit bisher bekannten Strahlenschutzpräparaten an Mäusen getestet. Die Versuche wurden mit weiblichen C3H Mäusen (GL. Bomholtgard, Ry, Dänemark) durchgeführt, die 20 bis 22 g wogen. Die Mäuse wurden unter Bedingungen gehalten, wo sie so viel Standard-Nagetierfutter (Nafag Pellts) fressen und so viel Leitungswasser trinken können, wie sie wollten. Die Bestrahlung erfolgte mit Gammastrahlen aus einer Kobalt-60 Quelle. Es wurden unterschiedliche Bestrahlungen vorgenommen, und zwar mit 9 Gy, 10 Gy, 11 Gy, 12 Gy, 13 Gy und 14 Gy.
10 Minuten vor der Bestrahlung, 30 Minuten vor der Bestrahlung oder 120 Minuten vor der Bestrahlung wurde ein durch die erfindungsgemässe Verwendung hergestelltes synergistisch wirkendes pharmazeutisches Präparat, bzw. ein entsprechendes, Zinkionen enthaltendes Strahlenschutzpräparat oder ein aus dem Stand der Technik bekanntes Strahlenschutzpräparat zu Vergleichszwecken durch intraperitoneale Injektion verabreicht.
Bei der Gruppe der Mäuse zu Vergleichszwecken, die ohne Verabreichung eines Strahlenschutzpräparates bestrahlt wurden, erfolgte 10 Minuten vor der Bestrahlung die Verabreichung von destilliertem Wasser. Bei diesen unbehandelten Mäusen überlebten nur 50% der Tiere eine Bestrahlung von 8 Gy, d.h. der LD₅₀-Wert betrug 8 Gy.
Nach den Arbeitsweisen der vorangegangenen Beispiele 1 bis 4, wurden weitere Tests mit den genannten weiblichen Mäusen durchgeführt, und zwar unter Verwendung der angeführten Zinksalze. Die bei diesen Tests erzielten Ergebnisse sind in der nachfolgenden Tabelle I zusammengestellt. Für jede der angewandten Bestrahlungsstärken ist in der Rubrik "Anzahl" diejenige Anzahl der Mäuse angeführt, welche die Bestrahlung überlebten, geteilt durch die Gesamtzahl der Mäuse, welche bestrahlt wurden. Ein entsprechender Wert von 1/10 bedeutet also, dass von 10 bestrahlten Mäusen eine überlebt hatte. In der Spalte mit der Bezeichnung "Prozent", ist die Prozent-Ueberlebensrate angeführt. Bei einer überlebenden Maus pro 10 getesteten Mäusen beträgt diese Ueberlebensrate 10 %.
Zu Vergleichszwecken sind in der nachfolgenden Tabelle III die Ueberlebensraten von Mäusen zusammengestellt, die nach dem in Beispiel 5 beschriebenen Verfahren einer Vorbehandlung mit einem bekannten schwefelhaltigen Strahlenschutzmittel unterworfen worden waren. Orientierende Vorversuche hatten gezeigt, dass diese Strahlenschutzmittel bereits ihre Wirkung verloren hatten, wenn sie zwei Stunden vor der Einwirkung der Bestrahlung verabreicht worden waren. Die Bestrahlung wurde, wie aus der Tabelle ersichtlich ist, zwei Minuten nach der Verabreichung, in den meisten Fällen 10 Minuten nach der Verabreichung, aber auch 30 Minuten, bzw. 120 Minuten nach der Verabreichung durchgeführt. Die Werte deuten darauf hin, dass 30 Minuten nach der Verabreichung die Schutzwirkung schon wieder deutlich nachgelassen hat. Für jede Bestrahlungsstärke ist wiederum die Anzahl der Tiere angeführt, die nach 30 Tagen überlebt haben, geteilt durch die Gesamtzahl der Tiere, die behandelt und bestrahlt worden waren.
Anhand dieses Beispiels soll die synergistische Wirkung von Zinkionen und Schwefelverbindungen bezüglich eines Strahlenschutzes erläutert werden. Es wurde wieder in der gleichen Weise gearbeitet, wie in den vorangegangenen Beispielen 1 bis 3, bzw. 5, und es wurde auch die gleiche Art an weiblichen Mäusen getestet. Die Verabreichung der Zinkionen enthaltenden Lösung und der Lösung der Schwefelverbindung erfolgte entweder nacheinander oder gleichzeitig durch intraperitoneale Injektion.
In allen Fällen wurde die Ueberlebensrate 30 Tage nach der Einwirkung der Bestrahlung bestimmt.

Mäuse = assay: Toxicity of the zinc salts used as radiation protection agents (LD50); format: in vivo
Description: In diesem Beispiel wurde die Toxizität der als Strahlenschutzmittel eingesetzten Zinksalze getestet.
Der LD₅₀-Wert betrug für das Zinkaspartat 55 mg/kg Körpergewicht, für das Zinkchlorid 24 mg/kg Körpergewicht und für das Zinksulfat 45 mg/kg Körpergewicht.

[1] = Table II, Zinksulfat: 15 mg/kg i.p.
[2] = Table II, Zinksulfat: 15 mg/kg i.p., 10 min before 10 Gy
[3] = Table II, Zinksulfat: 30 mg/kg i.p.
[4] = Table II, Zinksulfat: 30 mg/kg i.p., 10 min before 10 Gy
[5] = Table II, Zinksulfat: 22,5 mg/kg i.p.
[6] = Table II, Zinksulfat: 22,5 mg/kg i.p., 10 min before 10 Gy
[7] = Table II: 10 mg/kg i.p., 30 min before 10 Gy
[8] = Table II: 15 mg/kg i.p., 30 min before 10 Gy

## Zinksulfat
Weiblichen C3H Mäusen; [1]
  Ueberlebensrate nach Bestrahlung mit 9 Gy %: 0%
  Ueberlebensrate nach Bestrahlung mit 9 Gy Anzahl: 1/10
  Ueberlebensrate nach Bestrahlung mit 11 Gy %: 0%
  Ueberlebensrate nach Bestrahlung mit 11 Gy Anzahl: 0/20
Weiblichen C3H Mäusen; [2]
  Ueberlebensrate nach Bestrahlung mit 10 Gy %: 22%
  Ueberlebensrate nach Bestrahlung mit 10 Gy Anzahl: 2/9
Weiblichen C3H Mäusen; [3]
  Ueberlebensrate nach Bestrahlung mit 9 Gy Anzahl: 0/10
  Ueberlebensrate nach Bestrahlung mit 11 Gy %: 5%
  Ueberlebensrate nach Bestrahlung mit 11 Gy Anzahl: 1/20
Weiblichen C3H Mäusen; [4]
  Ueberlebensrate nach Bestrahlung mit 10 Gy %: 33%
  Ueberlebensrate nach Bestrahlung mit 10 Gy Anzahl: 3/9
Weiblichen C3H Mäusen; [5]
  Ueberlebensrate nach Bestrahlung mit 9 Gy %: 80%
  Ueberlebensrate nach Bestrahlung mit 9 Gy Anzahl: 8/10
  Ueberlebensrate nach Bestrahlung mit 11 Gy %: 0%
  Ueberlebensrate nach Bestrahlung mit 11 Gy Anzahl: 0/20
Weiblichen C3H Mäusen; [6]
  Ueberlebensrate nach Bestrahlung mit 10 Gy %: 33%
  Ueberlebensrate nach Bestrahlung mit 10 Gy Anzahl: 3/9
Mäuse
  LD₅₀-Wert: 45 mg/kg Körpergewicht

## [Cl-].[Cl-].[Zn+2] [Zinkchlorid]
Weiblichen C3H Mäusen; Table II: 10 mg/kg i.p.
  Ueberlebensrate nach Bestrahlung mit 9 Gy %: 20%
  Ueberlebensrate nach Bestrahlung mit 9 Gy Anzahl: 2/10
Weiblichen C3H Mäusen; [7]
  Ueberlebensrate nach Bestrahlung mit 10 Gy %: 15%
  Ueberlebensrate nach Bestrahlung mit 10 Gy Anzahl: 3/20
Weiblichen C3H Mäusen; Table II: 15 mg/kg i.p.
  Ueberlebensrate nach Bestrahlung mit 9 Gy %: 30%
  Ueberlebensrate nach Bestrahlung mit 9 Gy Anzahl: 3/30
Weiblichen C3H Mäusen; [8]
  Ueberlebensrate nach Bestrahlung mit 10 Gy %: 20%
  Ueberlebensrate nach Bestrahlung mit 10 Gy Anzahl: 4/20
Weiblichen C3H Mäusen; Table II: 20 mg/kg i.p.
  Ueberlebensrate nach Bestrahlung mit 9 Gy %: 10%
  Ueberlebensrate nach Bestrahlung mit 9 Gy Anzahl: 0/10
Mäuse
  LD₅₀-Wert: 24 mg/kg Körpergewicht
